Measured values from US20100267561A1, “HERBICIDAL PYRIDAZINONE DERIVATIVES” (priority 2007, published 2010).
Where two headings read alike, the source gives them in different places.

Assays:
Format in all cases: in vivo
[1] = system: barnyardgrass (Echinochloa crus-galli); assay: Test A pre-/postemergence plant response; conditions: for pest or weed control at 31 g/ha / pest or weed control at 125 g/ha: Echinochloa crus-galli, 240 h, read-out: Plant response rating, Barnyardgrass; for pest or weed control at 31 g/ha: 31 g ai/ha
In short: (§1)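 Seeds sown in loam–sand blend; test chemicals in non-phytotoxic solvent with surfactant applied preemergence as directed soil spray and, concurrently, postemergence to plants 2–10 cm tall at one- to two-leaf stage. Greenhouse ~10 days, then visual injury rating vs untreated controls on 0–100 scale (0 = no effect, 100 = complete control).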

[2] = system: pigweed (Amaranthus retroflexus); assay: Test A pre-/postemergence plant response; conditions: for pest or weed control at 31 g/ha / pest or weed control at 125 g/ha: Amaranthus retroflexus, 240 h, read-out: Plant response rating, Pigweed; for pest or weed control at 31 g/ha: 31 g ai/ha
In short: as §1

[3] = system: velvetleaf (Abutilon theophrasti); assay: Test A pre-/postemergence plant response
In short: as §1

[4] = system: large crabgrass (Digitaria sanguinalis); assay: Test A pre-/postemergence plant response; conditions: for pest or weed control at 31 g/ha / pest or weed control at 125 g/ha: Digitaria sanguinalis, 240 h, read-out: Plant response rating, Crabgrass, Large; for pest or weed control at 31 g/ha: 31 g ai/ha
In short: as §1

[5] = system: morningglory (Ipomoea coccinea); assay: Test A pre-/postemergence plant response
In short: as §1

[6] = system: giant foxtail (Setaria faberi); assay: Test A pre-/postemergence plant response; conditions: for pest or weed control at 31 g/ha / pest or weed control at 125 g/ha: Setaria faberi, 240 h, read-out: Plant response rating, Foxtail, Giant; for pest or weed control at 31 g/ha: 31 g ai/ha
In short: as §1

[7] = system: corn (Zea mays); assay: Test A pre-/postemergence plant response; conditions: for Corn plant response rating (crop injury, 0 = no effect, 100 = complete kill) at 31 g/ha / Corn plant response rating (crop injury, 0 = no effect, 100 = complete kill) at 125 g/ha: Zea mays, 240 h; for Corn plant response rating (crop injury, 0 = no effect, 100 = complete kill) at 31 g/ha: 31 g ai/ha
In short: as §1

[8] = system: wheat (Triticum aestivum); assay: Test A pre-/postemergence plant response; conditions: for plant injury at 31 g/ha / plant injury at 125 g/ha: Triticum aestivum, 240 h, read-out: Plant response rating, Wheat; for plant injury at 31 g/ha: 31 g ai/ha
In short: as §1

[9] = system: barnyardgrass (Echinochloa crus-galli); assay: Test B flooded paddy test plant response
In short: (§2)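 Paddy-water application to 2-leaf plants in pots held under 3 cm of flooding; response is a 0–100 visual control rating against controls after 13 to 15 days, and a dash marks a missing result.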

[10] = system: ducksalad (Heteranthera limosa); assay: Test B flooded paddy test plant response
In short: as §2

[11] = system: umbrella sedge (Cyperus difformis); assay: Test B flooded paddy test plant response
In short: as §2

[12] = system: rice (Oryza sativa); assay: Test B flooded paddy test plant response
In short: as §2

[13] = Postemergence, 125 g ai/ha, 0 to 100 scale, 0 no effect, 100 complete control
[14] = Postemergence, 500 g ai/ha, 0 to 100 scale, 0 no effect, 100 complete control
[15] = Preemergence, 125 g ai/ha, 0 to 100 scale (0 no effect, 100 complete control)
[16] = Preemergence, 500 g ai/ha, 0 to 100 scale (0 no effect, 100 complete control)
[17] = Flood (flooded paddy test), 62 g ai/ha, scale 0 to 100, 0 no effect, 100 complete control
[18] = Flood (flooded paddy test), 125 g ai/ha, scale 0 to 100, 0 no effect, 100 complete control
[19] = Flood (flooded paddy test), 250 g ai/ha, scale 0 to 100, 0 no effect, 100 complete control
[20] = Flood, 31 g ai/ha, scale 0 to 100
[21] = post-emergence, Postemergence, 0 to 100 scale (0 no effect, 100 complete control)
[22] = post-emergence, Postemergence, 125 g ai/ha, 0 to 100 scale, 0 no effect, 100 complete control
[23] = pre-emergence, Preemergence, 0 to 100 scale, 0 is no effect, 100 is complete control
[24] = pre-emergence, Preemergence, 125 g ai/ha, 0 to 100 scale (0 no effect, 100 complete control)

Cc1cc(-c2ccc(C(F)(F)F)cc2)nn1-c1c(O)c(C(C)C)nn(C)c1=O [Compound 27]
Plant response rating, Barnyardgrass [1, 13]: 20
Plant response rating, Barnyardgrass [1, 14]: 90
Plant response rating, Barnyardgrass [1, 15]: 80
Plant response rating, Barnyardgrass [1, 16]: 100
Plant response rating, Pigweed [2, 13]: 0
Plant response rating, Pigweed [2, 14]: 0
Plant response rating, Pigweed [2, 15]: 0
Plant response rating, Pigweed [2, 16]: 0
Plant response rating, Velvetleaf [3, 13]: 0
Plant response rating, Velvetleaf [3, 14]: 0
Plant response rating, Velvetleaf [3, 15]: 0
Plant response rating, Velvetleaf [3, 16]: 0
Plant response rating, Crabgrass, Large [4, 13]: 60
Plant response rating, Crabgrass, Large [4, 14]: 80
Plant response rating, Crabgrass, Large [4, 15]: 80
Plant response rating, Crabgrass, Large [4, 16]: 100
Plant response rating, Morningglory [5, 13]: 0
Plant response rating, Morningglory [5, 14]: 0
Plant response rating, Morningglory [5, 15]: 0
Plant response rating, Morningglory [5, 16]: 0
Plant response rating, Foxtail, Giant [6, 13]: 50
Plant response rating, Foxtail, Giant [6, 14]: 90
Plant response rating, Foxtail, Giant [6, 15]: 80
Plant response rating, Foxtail, Giant [6, 16]: 90
Plant response rating, Corn [7, 13]: 50
Plant response rating, Corn [7, 14]: 80
Plant response rating, Corn [7, 15]: 20
Plant response rating, Corn [7, 16]: 80
Plant response rating, Wheat [8, 13]: 50
Plant response rating, Wheat [8, 14]: 90
Plant response rating, Wheat [8, 15]: 40
Plant response rating, Wheat [8, 16]: 100
Plant response rating, Barnyardgrass [9, 17]: 0
Plant response rating, Barnyardgrass [9, 18]: 0
Plant response rating, Barnyardgrass [9, 19]: 30
Plant response rating, Barnyardgrass [9, 20]: 0
Plant response rating, Ducksalad [10, 17]: 40
Plant response rating, Ducksalad [10, 18]: 60
Plant response rating, Ducksalad [10, 19]: 75
Plant response rating, Ducksalad [10, 20]: 0
Plant response rating, Sedge, Umbrella [11, 17]: 20
Plant response rating, Sedge, Umbrella [11, 18]: 30
Plant response rating, Sedge, Umbrella [11, 19]: 65
Plant response rating, Sedge, Umbrella [11, 20]: 20
Plant response rating, Rice [12, 17]: 0
Plant response rating, Rice [12, 18]: 0
Plant response rating, Rice [12, 19]: 0
Plant response rating, Rice [12, 20]: 0

Cc1cn(-c2ccc(C(F)(F)F)cc2)nc1-c1c(O)cnn(C)c1=O [Compound 85, 5-hydroxy-2-methyl-4-[4-methyl-1-[4-(trifluoromethyl)phenyl]-1H-pyrazol-3-yl]-3(2H)-pyridazinone]
pest or weed control at 31 g/ha [1, 21]: 0%
pest or weed control at 125 g/ha [1, 22]: 30%
pest or weed control at 31 g/ha [1, 23]: 0%
pest or weed control at 125 g/ha [1, 24]: 40%
pest or weed control at 31 g/ha [2, 21]: 0%
pest or weed control at 125 g/ha [2, 22]: 0%
pest or weed control at 31 g/ha [2, 23]: 0%
pest or weed control at 125 g/ha [2, 24]: 0%
pest or weed control at 31 g/ha [4, 21]: 0%
pest or weed control at 125 g/ha [4, 22]: 40%
pest or weed control at 31 g/ha [4, 23]: 10%
pest or weed control at 125 g/ha [4, 24]: 70%
pest or weed control at 31 g/ha [6, 21]: 0%
pest or weed control at 125 g/ha [6, 22]: 60%
pest or weed control at 31 g/ha [6, 23]: 0%
pest or weed control at 125 g/ha [6, 24]: 100%
Corn plant response rating (crop injury, 0 = no effect, 100 = complete kill) at 31 g/ha [7, 21]: 0%
Corn plant response rating (crop injury, 0 = no effect, 100 = complete kill) at 125 g/ha [7, 22]: 0%
Corn plant response rating (crop injury, 0 = no effect, 100 = complete kill) at 31 g/ha [7, 23]: 0%
Corn plant response rating (crop injury, 0 = no effect, 100 = complete kill) at 125 g/ha [7, 24]: 0%
plant injury at 31 g/ha [8, 21]: 0%
plant injury at 125 g/ha [8, 22]: 20%
plant injury at 31 g/ha [8, 23]: 0%
plant injury at 125 g/ha [8, 24]: 20%
pest or weed control at 250 g/ha ([9]; Echinochloa crus-galli, Flood (flooded paddy test), 250 g ai/ha, scale 0 to 100, 0 no effect, 100 complete control, read-out: Plant response rating, Barnyardgrass): 0%
pest or weed control at 62 g/ha ([9]; Echinochloa crus-galli, Flood, 62 g ai/ha, scale 0 to 100, read-out: Plant response rating, Barnyardgrass): 0%
pest or weed control at 250 g/ha ([10]; Heteranthera limosa, Flood (flooded paddy test), 250 g ai/ha, scale 0 to 100, 0 no effect, 100 complete control, read-out: Plant response rating, Ducksalad): 0%
pest or weed control at 62 g/ha ([10]; Heteranthera limosa, Flood, 62 g ai/ha, scale 0 to 100, read-out: Plant response rating, Ducksalad): 0%
pest or weed control at 250 g/ha ([11]; Cyperus difformis, Flood (flooded paddy test), 250 g ai/ha, scale 0 to 100, 0 no effect, 100 complete control, read-out: Plant response rating, Sedge, Umbrella): 0%
pest or weed control at 62 g/ha ([11]; Cyperus difformis, Flood, 62 g ai/ha, scale 0 to 100, read-out: Plant response rating, Sedge, Umbrella): 0%
plant injury at 250 g/ha ([12]; Oryza sativa, Flood (flooded paddy test), 250 g ai/ha, scale 0 to 100, 0 no effect, 100 complete control, read-out: Plant response rating, Rice): 0%
plant injury at 62 g/ha ([12]; Oryza sativa, Flood, 62 g ai/ha, scale 0 to 100, read-out: Plant response rating, Rice): 0%
